Experimental data as given in patent publication US20220304946A1 (priority 2021, published 2022).
Entries after “also recorded” stand apart in the source; their conditions may differ. Where two headings read alike, the source gives them in different places. Where a SMILES comes first, the peptide text is derived from it. Bridges are numbered along the chain shown (N, C = ends). [ ]: non-standard residue; d: D form. The star is where a group is joined. Ileψ(thiazoline)Cys = CC[C@H](C)[C@H](N)C1=N[C@H](C(=O)*)CS1; dOrn = NCCC[C@@H](N)C(=O)O

Key:
[1] = biological target: prolyl endopeptidase (PEP) (UniProt P27028); assay: PEP inhibitory activity assay (modified Yoshimoto et al. method, Z-Gly-Pro-pNA substrate); type: biochemical
Experimental: PEP inhibitory activity was evaluated with minor modification of the Yoshimoto et al. method. Briefly, 150 μL of sodium phosphate buffer (50 mM, pH 7.0), and 10 μL of the test compound (0.5 mM in DMSO) were added into a 96-well plate, followed by adding 20 μL solution containing 0.02 units of PEP enzyme. In the Blank reaction, 20 μL of DMSO was added instead of the test compound, while bacitracin (0.5 mM) was used as the positive control. The incubation of the reaction mixture was carried out for 15 min at 30° C. after which a pre-read was taken at 410 nm. Next, 0.4 mM solution of Z-Gly-Pro-pNA was formed in aqueous 1,4-dioxane (40%), followed by taking the optical density (O.D.) of the reaction mixture at a wavelength of 410 nm for 40 min using a 96-well plate reader (SpectraMax-384, Molecular Devices, CA, USA).
Each reaction was repeated thrice and the differences in the results of each experiment were collectively expressed as the standard error of the mean (SEM).
% Inhibition=100−(O.D. test compound/O.D. Control)×100

[2] = biological target: prolyl endopeptidase (PEP) (UniProt P27028); assay: Kinetic assay of PEP inhibition (Lineweaver-Burk and Dixon plots); type: biochemical
Experimental: That in which way it inhibits the PEP catalytic activity i.e. competitive inhibition, non-competitive inhibition, mixed or uncompetitive inhibition. […] The reaction was started post adding four various concentrations of Z-Gly-Pro-pNA (0.2 mM to 0.5 mM). The PEP enzymatic catalysis was assessed at 410 nm via a 96-well plate reader.
Next, using the obtained O.D. results, the Lineweaver-Burk and Dixon plot was generated.
Grafit version-7 (Erithacus Software Limited, UK) was employed for the Kinetic studies.

prolyl endopeptidase (PEP), sequence (P27028 whole entry): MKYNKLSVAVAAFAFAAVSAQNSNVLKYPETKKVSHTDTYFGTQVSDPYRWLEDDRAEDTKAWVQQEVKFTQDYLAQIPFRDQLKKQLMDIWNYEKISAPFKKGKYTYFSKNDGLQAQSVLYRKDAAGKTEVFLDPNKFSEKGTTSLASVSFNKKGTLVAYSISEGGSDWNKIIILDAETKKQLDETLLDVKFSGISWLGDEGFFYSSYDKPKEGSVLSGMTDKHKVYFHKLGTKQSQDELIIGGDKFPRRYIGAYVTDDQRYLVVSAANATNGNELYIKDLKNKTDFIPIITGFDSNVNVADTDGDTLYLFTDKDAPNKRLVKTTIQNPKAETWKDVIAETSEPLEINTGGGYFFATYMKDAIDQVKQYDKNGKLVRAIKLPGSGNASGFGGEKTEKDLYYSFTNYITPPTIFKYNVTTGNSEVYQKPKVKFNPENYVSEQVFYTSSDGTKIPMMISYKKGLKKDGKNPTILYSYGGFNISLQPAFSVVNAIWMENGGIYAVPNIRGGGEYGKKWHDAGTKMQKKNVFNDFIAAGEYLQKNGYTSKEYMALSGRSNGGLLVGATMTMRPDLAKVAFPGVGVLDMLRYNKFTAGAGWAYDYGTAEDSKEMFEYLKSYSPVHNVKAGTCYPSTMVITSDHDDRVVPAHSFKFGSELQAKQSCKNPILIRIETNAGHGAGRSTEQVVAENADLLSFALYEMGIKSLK

| Structure (SMILES) | IC50 ([1]; mean ± SEM, repeated thrice; 30° C., pH 7.0; read-out: PEP inhibitory activity IC50) [µM] | IC50 ([1]; read-out: PEP inhibitory activity IC50; mean ± SEM, repeated thrice; 30° C., pH 7.0) [µM] | type of PEP inhibition ([2]; Lineweaver-Burk / Dixon plot) | Ki ([2]; read-out: Ki value, Lineweaver-Burk plot, reconfirmed by Dixon plot) [µM] |
| --- | --- | --- | --- | --- |
| CC[C@H](C)[C@H](N)C1=N[C@H](C(=O)N[C@@H](CC(C)C)C(=O)N[C@H](CCC(=O)O)C(=O)N[C@H](C(=O)N[C@H]2CCCCNC(=O)[C@H](CC(N)=O)NC(=O)[C@@H](CC(=O)O)NC(=O)[C@H](Cc3cnc[nH]3)NC(=O)[C@@H](Cc3ccccc3)NC(=O)[C@H]([C@@H](C)CC)NC(=O)[C@@H](CCCN)NC2=O)[C@@H](C)CC)CS1 [bacitracin, reference compound] ({Ileψ(thiazoline)Cys}-L[dE]IK[dOrn]I[dF]H[dD]N; lactam 4-C) | 114 ± 1.2 | – | – | – |
| C/C=C/c1ccc(OC)cc1 [trans-anethole, (E)-1-Methoxy-4-(1-propenyl) benzene] | – | 5.7 ± 1.2 | competitively inhibited; also recorded: competitive | 5.656 ± 0.03 |
